Reference: patent US20030203373A1 (priority 2002, published 2003)
“And” between values parts separate entries of the source, which are not always exact repeats. Identical values can stand only once. Ends that are not written are not given here.

Target: T1, ACE from pig kidney (Sus scrofa, UniProt F1RRW5)
T1 construct: 1 mU ACE from pig kidney (EC 3.4.15.1 (Sigma)); purchased Sigma; host or cells: pig kidney (tissue-derived enzyme)
T1 sequence (F1RRW5 34-1309): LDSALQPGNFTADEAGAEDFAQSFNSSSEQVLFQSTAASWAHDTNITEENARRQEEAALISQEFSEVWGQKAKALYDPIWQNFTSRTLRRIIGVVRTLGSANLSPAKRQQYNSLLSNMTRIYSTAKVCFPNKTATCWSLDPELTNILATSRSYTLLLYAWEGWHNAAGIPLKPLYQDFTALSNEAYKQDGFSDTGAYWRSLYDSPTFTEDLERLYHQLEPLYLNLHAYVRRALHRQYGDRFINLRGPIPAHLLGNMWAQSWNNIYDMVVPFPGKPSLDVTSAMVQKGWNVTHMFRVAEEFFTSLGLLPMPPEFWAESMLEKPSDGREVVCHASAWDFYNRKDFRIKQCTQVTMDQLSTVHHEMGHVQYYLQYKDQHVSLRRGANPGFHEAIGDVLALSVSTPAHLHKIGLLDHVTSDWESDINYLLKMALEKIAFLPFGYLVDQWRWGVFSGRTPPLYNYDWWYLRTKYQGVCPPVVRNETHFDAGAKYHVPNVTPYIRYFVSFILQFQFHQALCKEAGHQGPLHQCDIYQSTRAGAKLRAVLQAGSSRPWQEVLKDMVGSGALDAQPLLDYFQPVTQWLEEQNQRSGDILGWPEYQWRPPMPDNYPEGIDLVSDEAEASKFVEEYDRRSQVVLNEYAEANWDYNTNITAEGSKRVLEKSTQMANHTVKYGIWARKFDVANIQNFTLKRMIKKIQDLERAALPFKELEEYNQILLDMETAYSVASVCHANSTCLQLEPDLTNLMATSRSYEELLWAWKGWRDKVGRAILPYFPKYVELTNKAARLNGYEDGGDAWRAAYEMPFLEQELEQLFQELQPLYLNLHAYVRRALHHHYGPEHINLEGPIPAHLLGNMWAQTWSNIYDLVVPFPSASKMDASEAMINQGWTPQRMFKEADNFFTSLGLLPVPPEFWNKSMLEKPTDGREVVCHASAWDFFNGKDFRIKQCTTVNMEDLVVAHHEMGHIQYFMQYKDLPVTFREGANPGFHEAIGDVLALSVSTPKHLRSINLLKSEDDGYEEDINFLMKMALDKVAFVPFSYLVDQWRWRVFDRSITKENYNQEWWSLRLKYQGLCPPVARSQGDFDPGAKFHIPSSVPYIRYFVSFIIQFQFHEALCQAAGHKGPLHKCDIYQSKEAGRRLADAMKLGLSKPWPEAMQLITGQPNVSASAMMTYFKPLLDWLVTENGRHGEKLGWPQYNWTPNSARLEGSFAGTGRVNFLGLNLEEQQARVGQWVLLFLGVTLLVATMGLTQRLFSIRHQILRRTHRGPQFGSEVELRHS
Experiment: biochemical
Assay type: biochemical
Details: for IC50: ACE from pig kidney, determined graphically, read-out: IC50-value (ACE inhibition)
Description: These peptides were investigated for their inhibitory effect using an in vitro-ACE-inhibitor-assay with an angiotensin-converting-enzyme derived from pig kidney. Hippuryl-histidyl-leucin was used as a substrate. […] A concrete experimental description is given below.
The principle of the ACE-inhibition-assay was established by Chejung, H. S., Cushman, D. W.: “Inhibition of homogenous angiotensin converting enzyme of rabbit lung by synthetic venom peptides of Bothrops jararaca.” in Biochimica et Biophysica Acta 293, 451-563 (1973).
The assay was performed in 96 well HTRF-plates (Packard). The concentrations used for each well were:
1 mU ACE from pig kidney (EC 3.4.15.1 (Sigma)) in 30 μl of assay buffer (25 mM HEPES; 0,3 M NaCl, pH 8,2) and 20 μl inhibitor dissolved in assay buffer (0,35-200 μM). The reaction was started by adding 50 μl of 2 mM hippuryl-histidyl-leucin (Sigma) in assay buffer. The reaction was performed at room temperature (22° C.) for 30 minutes and terminated by adding 50 μl of 2 M NaOH. Afterwards 50 μl of 0,5% ortho-phtalaldehyd (Sigma) in methanol were added, 5 minutes later followed by 50 μl of 2,5 M HCl-solution to stabilize the developed fluorescence product.
The results were used to calculate the % inhibition. The IC50-values were determined graphically from a curve showing the dose-reaction ratio.
In order to minimize errors due to time-dependent differences, all pipetting steps were performed in a precise time schedule.

[1] = inhibitor 0.39 μM, replicates A-D
[2] = inhibitor 0.39 μM, replicates A-D, 0.39 µM
[3] = inhibitor 0.78125 μM, replicates A-D
[4] = inhibitor 0.78125 μM, replicates A-D, 0.78125 µM
[5] = inhibitor 1.5625 μM, replicates A-D
[6] = inhibitor 1.5625 μM, replicates A-D, 1.5625 µM
[7] = inhibitor 3.125 μM, replicates A-D
[8] = inhibitor 3.125 μM, replicates A-D, 3.125 µM
[9] = inhibitor 6.25 μM, replicates A-D
[10] = inhibitor 6.25 μM, replicates A-D, 6.25 µM
[11] = inhibitor 12.5 μM, replicates A-D
[12] = inhibitor 12.5 μM, replicates A-D, 12.5 µM
[13] = inhibitor 25 μM, replicates A-D
[14] = inhibitor 25 μM, replicates A-D, 25 µM
[15] = inhibitor 50 μM, replicates A-D
[16] = inhibitor 50 μM, replicates A-D, 50 µM
[17] = inhibitor 100 μM, replicates A-D
[18] = inhibitor 100 μM, replicates A-D, 100 µM
[19] = inhibitor 200 μM, replicates A-D
[20] = inhibitor 200 μM, replicates A-D, 200 µM

Substance | IC50 [µM] | fluorescence reading (ACE Inhibitor Assay) [1] | % inhibition (ACE Inhibitor Assay) [2] | fluorescence reading (ACE Inhibitor Assay) [3] | % inhibition (ACE Inhibitor Assay) [4] | fluorescence reading (ACE Inhibitor Assay) [5] | % inhibition (ACE Inhibitor Assay) [6] | fluorescence reading (ACE Inhibitor Assay) [7] | inhibition at 3.125 µM [7] [%] | % inhibition (ACE Inhibitor Assay) [8] | fluorescence reading (ACE Inhibitor Assay) [9] | inhibition at 6.25 µM [9] [%] | % inhibition (ACE Inhibitor Assay) [10] | fluorescence reading (ACE Inhibitor Assay) [11] | inhibition at 12.5 µM [11] [%] | % inhibition (ACE Inhibitor Assay) [12] | fluorescence reading (ACE Inhibitor Assay) [13] | inhibition at 25 µM [13] [%] | % inhibition (ACE Inhibitor Assay) [14] | fluorescence reading (ACE Inhibitor Assay) [15] | other results
LSPLPEVPP [Peptide S546] | 3.5 | 803315 and 773719 and 787391 and 826280 | 14.38% and 12.86% and 8.53% | 719861 and 687713 and 702450 and 763649 | 23.96% and 22.32% and 15.5% | 591636 and 572728 and 566984 and 657580 | 36.77% and 37.41% and 27.32% | 483121 and 472396 and 452574 and 495814 | 46.8 | 47.95% and 50.15% and 45.32% | 308510 and 312423 and 322970 and 336576 | 66.2 | 65.77% and 64.59% and 63.07% | 225714 and 208268 and 221839 and 226385 | 75.4 | 77.32% and 75.86% and 75.35% | 116421 and 119382 and 118514 and 124101 | 87.6 | 87.27% and 87.36% and 86.74% | 69502 and 65379 and 67861 and 73176 | inhibition at 0.39 µM [1]: 11.1%; inhibition at 0.78125 µM [3]: 20.4%; inhibition at 1.5625 µM [5]: 34.7%; inhibition at 50 µM [15]: 92.8%; % inhibition (ACE Inhibitor Assay) [16]: 93.28% and 93.01% and 92.41%; fluorescence reading (ACE Inhibitor Assay) [17]: 37664 and 36789 and 37490 and 39445; inhibition at 100 µM [17]: 96.4%; % inhibition (ACE Inhibitor Assay) [18]: 96.47% and 96.39% and 96.17%; fluorescence reading (ACE Inhibitor Assay) [19]: 22822 and 23110 and 24700 and 22511; inhibition at 200 µM [19]: 98%; % inhibition (ACE Inhibitor Assay) [20]: 97.99% and 97.82% and 98.06%
PLPEVPP [Peptide S548, PLPEVPP] | 21 | 850082 and 861072 and 990310 and 812986 | 5,85% and 4,63% and −9,77% and 9,98% | 736956 and 848448 and 878121 and 787559 | 18,46% and 6,03% and 2,73% and 12,82% | 672595 and 802519 and 857919 and 773857 | 25,63% and 11,15% and 4,98% and 14,35% | 735840 and 756404 and 788637 and 719509 | 18.6 | 16,29% and 12,7% and 20,4% | 644083 and 676136 and 699343 and 628007 | 28.8 | 25,23% and 22,65% and 30,6% | 668264 and 582524 and 619407 and 572641 | 37.2 | 35,66% and 31,55% and 36,76% | 411233 and 394114 and 413347 and 402465 | 54.8 | 56,66% and 54,52% and 55,73% | 291507 and 326054 and 343249 and 278402 | inhibition at 50 µM [15]: 68.1%; % inhibition (ACE Inhibitor Assay) [16]: 64,24% and 62,33% and 69,55%; fluorescence reading (ACE Inhibitor Assay) [17]: 181416 and 194177 and 204171 and 168452; inhibition at 100 µM [17]: 80.4%; % inhibition (ACE Inhibitor Assay) [18]: 78,94% and 77,82% and 81,8%; fluorescence reading (ACE Inhibitor Assay) [19]: 108115 and 108968 and 113955 and 101322; inhibition at 200 µM [19]: 88.5%; % inhibition (ACE Inhibitor Assay) [20]: 88,43% and 87,87% and 89,28%
